From patent US20240174695A1, “Spirocycle Containing Bicyclic Heteroaryl Compounds” (Protego Biopharma, Inc., priority 2022, published 2024)
Also: test concentration or dose not given here.

What follows are compounds tested on Recombinant amyloidogenic full length light chain protein WIL-FL T46L (assay: Differential Scanning Fluorimetry Assay (thermal shift assay)). Settings: Thermal Shift Protein Stability Kit (Biotium), 96-well plates; protein and compounds incubated at RT for 30 min before adding the dye.
Type: binding
Description: Differential Scanning Fluorimetry Assay
The stabilization effects the compounds have on the immunoglobulin light chain protein were quantitively measured using a thermal shift assay. Recombinant amyloidogenic full length light chain protein WIL-FL T46L was produced in E. coli, purified, and used in the assay. The Thermal Shift Protein Stability Kit from Biotium was used and the assay was done in 96-well plates following the manufacturer's instructions. The protein and compounds were incubated at RT for 30 min before adding the dye and subjected to the thermal shift assay. The thermal stability (Tm) of each sample was then determined using standard curve fitting methods and compared to vehicle. Data are expressed as temperature shift: [Tm]compound−[Tm]vehicle.
Results • 0-0.5° C.=* • >0.5-1° C.=** • >1-1.5° C.=*** • >1.5-2.5° C.=**** • >2.5° C.=*****
With `COC(=O)c1cnc(N2CCC3(CC2)CN(CC(O)c2nc4c(C)cc(OCC5(c6ccccc6)CC5)cn4n2)C(=O)N3)c2nccn12` (centres unmarked) [Compound 136] the “DSF temperature shift: [Tm]compound−[Tm]vehicle” value (“DSF temperature shift” for short) was “***** (>2.5° C.=*****)”. In the case of `Cc1cc(OCC2(c3ccccc3)CC2)cn2nc(C(O)CN3CC4(CCN(c5ccnc(Cl)c5)CC4)NC3=O)nc12` (centres unmarked) [Compound 37], the “DSF temperature shift” value is reported as “**** (>1.5-2.5° C.=****)”. For `Cc1cc(N2CC[C@@](C)(c3ccccc3)C2)cn2nc(C(C)(O)CN3CC4(CCN(c5ccnc(O)c5)CC4)NC3=O)nc12` (some centres unmarked) [Compound 20], the “DSF temperature shift” value was “***** (>2.5° C.=*****)”. With `Cc1cc(OCC2(c3ccccc3)CC2)cn2nc(C(O)CN3CC4(CCN(c5ncc(C(=O)O)n6ccnc56)CC4)NC3=O)nc12` (centres unmarked) [Compound 54] the “DSF temperature shift” value was “**** (>1.5-2.5° C.=****)”. With `Cc1cc(OCC2(c3ccccc3)CC2)cn2nc(C(O)CN3CC4(CCN(c5cccnc5C(F)(F)F)CC4)NC3=O)nc12` (centres unmarked) [Compound 35] the “DSF temperature shift” value was “**** (>1.5-2.5° C.=****)”. In the case of `Cc1cc(OC[C@H](C)c2ccccc2)cn2nc(C(O)CN3CC4(CN(c5ccnc(O)n5)C4)NC3=O)nc12` (some centres unmarked) [Compound 85], the “DSF temperature shift” value is reported as “***** (>2.5° C.=*****)”. For `Cc1cc(OC[C@H](C)c2ccccc2)cn2nc(CCN3CC4(CCN(c5ccnc(S(C)(=O)=O)n5)CC4)NC3=O)nc12` [Compound 106], the “DSF temperature shift” value was “***** (>2.5° C.=*****)”. For `Cc1cc(OC[C@H](C)c2ccccc2)cn2nc(CCN3CC4(CN(c5ncc(F)cn5)C4)NC3=O)nc12` [Compound 127], the “DSF temperature shift” value was “***** (>2.5° C.=*****)”. For `Cc1cc(OC[C@H](C)c2ccccc2)cn2nc(CCN3CC4(CCN(c5cc(C(F)(F)F)ccn5)CC4)NC3=O)nc12` [Compound 95], the “DSF temperature shift” value was “*** (>1-1.5° C.=***)”. In the case of `Cc1cc(OC[C@H](C)c2ccccc2)cn2nc(C(O)CN3CC4(CCN(C(=O)Cc5ncnn5C)CC4)NC3=O)nc12` (some centres unmarked) [Compound 70], the “DSF temperature shift” value is reported as “**** (>1.5-2.5° C.=****)”. With `Cc1cc(OC[C@H](C)c2ccccc2)cn2nc(CCN3CC4(CCN(C(=O)C5(c6ccccn6)CC5)CC4)NC3=O)nc12` [Compound 90] the “DSF temperature shift” value was “*** (>1-1.5° C.=***)”. In the case of `Cc1cc(OCC2(c3ccccc3)CC2)cn2nc(C(O)CN3CC4(CCN(c5ccnc(O)c5)CC4)NC3=O)nc12` (centres unmarked) [Compound 45], the “DSF temperature shift” value is reported as “***** (>2.5° C.=*****)”. With `Cc1cc(OC[C@H](C)c2ccccc2)cn2nc(C(O)CN3CC4(CCN(c5ccnc(O)c5)C4)NC3=O)nc12` (some centres unmarked) [Compound 73] the “DSF temperature shift” value was “*** (>1-1.5° C.=***)”. In the case of `C[C@@H](COc1cc(CO)c2nc(C(O)CN3CC4(CN(c5ccnc(O)c5)C4)OC3=O)nn2c1)c1ccccc1` (some centres unmarked) [Compound 145], the “DSF temperature shift” value is reported as “***** (>2.5° C.=*****)”. With `Cc1nnc(N2CCC3(CC2)CN(CCc2nc4c(C)cc(OC[C@H](C)c5ccccc5)cn4n2)C(=O)N3)s1` [Compound 122] the “DSF temperature shift” value was “**** (>1.5-2.5° C.=****)”. `Cc1cc(OC[C@H](C)c2ccccc2)cn2nc(CCN3CC4(CCN(c5cccc(Cl)n5)CC4)NC3=O)nc12` [Compound 102] was tested, and the “DSF temperature shift” value was “*** (>1-1.5° C.=***)”. With `Cc1cc(N2CC3(CN(CC(O)c4nc5c(C)cc(OC[C@H](C)c6ccccc6)cn5n4)C(=O)N3)C2)cc(O)n1` (some centres unmarked) [Compound 16] the “DSF temperature shift” value was “***** (>2.5° C.=*****)”. `Cc1cc(OC[C@H](C)c2ccccc2)cn2nc(CCN3CC4(CCN(c5ncc(F)cn5)C4)NC3=O)nc12` (some centres unmarked) [Compound 112] was tested, and the “DSF temperature shift” value was “**** (>1.5-2.5° C.=****)”. For `Cc1cc(OC[C@H](C)c2ccccc2)cn2nc(C(O)CN3CC4(CN(c5nccn6cnnc56)C4)NC3=O)nc12` (some centres unmarked) [Compound 88], the “DSF temperature shift” value was “***** (>2.5° C.=*****)”. In the case of `Cc1cc(OCC2(c3ccccc3)CC2)cn2nc(C(O)CN3CC4(CCN(c5nnn(C)n5)CC4)NC3=O)nc12` (centres unmarked) [Compound 62], the “DSF temperature shift” value is reported as “**** (>1.5-2.5° C.=****)”. `Cc1cc(N2CC[C@@](C)(c3ccccc3)C2)cn2nc(C(O)CN3CC4(CN(c5cccc(C(=O)O)n5)C4)NC3=O)nc12` (some centres unmarked) [Compound 25] was tested, and the “DSF temperature shift” value was “***** (>2.5° C.=*****)”. `Cc1cc(N2CC[C@@](C)(c3ccccc3)C2)cn2nc(C(O)CN3CC4(CCN(c5nccn6ccnc56)CC4)NC3=O)nc12` (some centres unmarked) [Compound 22] was tested, and the “DSF temperature shift” value was “***** (>2.5° C.=*****)”. With `Cc1cc(N2CC[C@@](C)(c3ccccc3)C2)cn2nc(C(O)CN3CC4(CN(c5cccc(O)n5)C4)NC3=O)nc12` (some centres unmarked) [Compound 26] the “DSF temperature shift” value was “***** (>2.5° C.=*****)”. `Cc1cc(OC[C@H](C)c2ccccc2)cn2nc(CCN3CC4(CCN(c5ccnc(C(F)(F)F)c5)CC4)NC3=O)nc12` [Compound 96] was tested, and the “DSF temperature shift” value was “*** (>1-1.5° C.=***)”. With `Cc1cc(OCC2(c3ccccc3)CC2)cn2nc(C(O)CN3CC4(CCN(c5cnccn5)CC4)NC3=O)nc12` (centres unmarked) [Compound 58] the “DSF temperature shift” value was “***** (>2.5° C.=*****)”. With `Cc1cc(OC[C@H](C)c2ccccc2)cn2nc(CCN3CC4(CCN(c5ccc(C#N)cn5)CC4)NC3=O)nc12` [Compound 100] the “DSF temperature shift” value was “**** (>1.5-2.5° C.=****)”. For `CCOC(=O)c1ccc(N2CCC3(CC2)CN(CC(O)c2nc4c(C)cc(OCC5(c6ccccc6)CC5)cn4n2)C(=O)N3)cn1` (centres unmarked) [Compound 130], the “DSF temperature shift” value was “*** (>1-1.5° C.=***)”. `Cc1c(O)ncnc1N1CC2(CN(CC(O)c3nc4c(C)cc(OC[C@H](C)c5ccccc5)cn4n3)C(=O)N2)C1` (some centres unmarked) [Compound 89] was tested, and the “DSF temperature shift” value was “***** (>2.5° C.=*****)”. With `Cc1cc(OC[C@@H](C)c2ccccc2)cn2nc(CCN3CC4(CCN(c5nccn6ccnc56)CC4)NC3=O)nc12` [Compound 11] the “DSF temperature shift” value was “**** (>1.5-2.5° C.=****)”. With `Cc1cc(N2CCC(C)(c3ccccc3)C2)cn2nc(CCCN3C(=O)NC4(CCN(c5nccn6ccnc56)CC4)C3=O)nc12` (centres unmarked) [Compound 17] the “DSF temperature shift” value was “***** (>2.5° C.=*****)”. For `Cc1cc(N2CC[C@](C)(c3ccccc3)C2)cn2nc(CCN3CC4(CCN(c5nccn6ccnc56)CC4)NC3=O)nc12` [Compound 2], the “DSF temperature shift” value was “***** (>2.5° C.=*****)”. In the case of `Cc1cc(OCC2(c3ccccc3)CC2)cn2nc(C(O)CN3CC4(CCN(c5ccc(F)nc5)CC4)NC3=O)nc12` (centres unmarked) [Compound 42], the “DSF temperature shift” value is reported as “**** (>1.5-2.5° C.=****)”. With `CC[C@]1(c2ccccc2)CCN(c2cc(C)c3nc(CCN4CC5(CCN(c6nccn7cnnc67)CC5)NC4=O)nn3c2)C1` [Compound 8] the “DSF temperature shift” value was “***** (>2.5° C.=*****)”. In the case of `Cc1cc(OCC2(c3ccccc3)CC2)cn2nc(C(O)CN3CC4(CCN(c5ccc(N)c(F)n5)CC4)NC3=O)nc12` (centres unmarked) [Compound 52], the “DSF temperature shift” value is reported as “***** (>2.5° C.=*****)”. For `Cc1cc(OC[C@H](C)c2ccccc2)cn2nc(CCN3CC4(CCN(C(=O)c5ncnn5C)CC4)NC3=O)nc12` [Compound 92], the “DSF temperature shift” value was “**** (>1.5-2.5° C.=****)”. `Cc1cc(OCC2(c3ccccc3)CC2)cn2nc(C(O)CN3CC4(CCN(c5ccc(Cl)nc5)CC4)NC3=O)nc12` (centres unmarked) [Compound 41] was tested, and the “DSF temperature shift” value was “**** (>1.5-2.5° C.=****)”. In the case of `Cc1noc(N2CCC3(CC2)CN(CCc2nc4c(C)cc(OC[C@H](C)c5ccccc5)cn4n2)C(=O)N3)n1` [Compound 108], the “DSF temperature shift” value is reported as “***** (>2.5° C.=*****)”. In the case of `Cc1cc(OC[C@H](C)c2ccccc2)cn2nc(CCN3CC4(CCN(S(=O)(=O)c5cccnc5)CC4)NC3=O)nc12` [Compound 125], the “DSF temperature shift” value is reported as “**** (>1.5-2.5° C.=****)”.
